In patent US10457677B2 (priority 2015, dated 2019):
Where a name gives a salt, the structure may show the parent alone. Read-outs that look alike come from different tables or passages of the source.

Experiments:
[1] = target: purified human recombinant ATM (ataxia telangiectasia mutated), full length (Homo sapiens (Human), UniProt Q13315); test: ATM kinase assay - determination of ATM inhibition (IC50 ATM), TR-FRET; assay type: biochemical
In short: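 Full-length enzyme, expressed in a mammalian cell line, pre-incubated 15 min with inhibitor in 25 mM HEPES pH 8.0, 10 mM Mg(CH3COO)2, 1 mM MnCl2, 0,1% BSA, 0,01% Brij 35, 5 mM DTT. Full-length cmyc-p53 (Sf21-expressed) and ATP then added, 30-35 min at 22° C. EDTA stop; p53 S15 phosphorylation read by TR-FRET antibodies.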

[2] = test system: phosphorylation of CHK2 (phospho-Thr68) in HCT116 cells; test: Cellular pCHK2 assay: bleomycin-induced phosphorylation of CHK2 (phospho-Thr68), immunofluorescence high-content analysis; assay type: cell-based, human; settings: Homo sapiens, HCT-116, 4 h, read-out: IC50 (pCHK2)
In short: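 HCT116 cells in DMEM with 10% FCS, incubated overnight at 37° C, then given compounds (1 nM to 30 μM, 0.5% DMSO) together with 10 μM bleomycin. Phospho-Thr68 CHK2 immunostained and imaged by high-content imager; nuclei with pCHK2 above background counted, cell count from propidium iodide DNA stain.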

[3] = target: mTOR (human) (Homo sapiens (Human), UniProt P42345); test: mTOR (human) kinase assay, [γ-33P-ATP] filter assay; assay type: biochemical
In short: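 Radiometric filter assay: enzyme in 50 mM HEPES pH 7.5, 1 mM EGTA, 0.01% Tween 20, 3 mM MnCl2, 2 mg/ml substrate with [γ-33P-ATP], started with MgATP. Incubated 40 min at room temperature, stopped with 3% phosphoric acid; incorporation measured on P30 filtermat by scintillation counting.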

[4] = target: PI3K p110α/p85α (human) (Homo sapiens (Human), UniProt P42336); test: PI3K p110α/p85α (human), non-radioactive assay (HTRF); assay type: biochemical; settings: read-out: IC50 (PI3Kalpha)
[5] = target: PI3K p110β/p85α (human) (Homo sapiens (Human), UniProt P42338); test: PI3K p110β/p85α (human), non-radioactive assay (HTRF); assay type: biochemical; settings: read-out: IC50 (PI3Kbeta)
In short: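 Human p110β/p85α incubated with 10 μM phosphatidylinositol 4,5-bisphosphate and MgATP for 30 min at room temperature, stopped with EDTA plus biotinylated PIP3. HTRF detection used a Eu-anti-GST antibody, GST-GRP1 PH domain and streptavidin-APC, with signal taken as 10000×(Em665nm/Em620nm).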

[6] = target: PI3K p110δ/p85α (human) (Homo sapiens (Human), UniProt O00329); test: PI3K p110δ/p85α (human), non-radioactive assay (HTRF); assay type: biochemical; settings: read-out: IC50 (PI3Kdelta)
[7] = target: PI3K (p120γ) (human) (Homo sapiens (Human), UniProt P48736); test: PI3K (p120γ) (human), non-radioactive assay (HTRF); assay type: biochemical; settings: read-out: IC50 (PI3Kgamma)
In short: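 Enzyme was run with 10 μM phosphatidylinositol 4,5-bisphosphate, starting the reaction with MgATP at an unspecified level, for 30 min at room temperature. The stop used EDTA plus biotinylated PIP3, and detection used Eu-anti-GST, GST-GRP1 PH domain and streptavidin-APC. Signal was taken as HTRF = 10000×(Em665nm/Em620nm).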

Sequence of PI3K (p120γ) (human) (P48736 whole entry, the tested form may be a part): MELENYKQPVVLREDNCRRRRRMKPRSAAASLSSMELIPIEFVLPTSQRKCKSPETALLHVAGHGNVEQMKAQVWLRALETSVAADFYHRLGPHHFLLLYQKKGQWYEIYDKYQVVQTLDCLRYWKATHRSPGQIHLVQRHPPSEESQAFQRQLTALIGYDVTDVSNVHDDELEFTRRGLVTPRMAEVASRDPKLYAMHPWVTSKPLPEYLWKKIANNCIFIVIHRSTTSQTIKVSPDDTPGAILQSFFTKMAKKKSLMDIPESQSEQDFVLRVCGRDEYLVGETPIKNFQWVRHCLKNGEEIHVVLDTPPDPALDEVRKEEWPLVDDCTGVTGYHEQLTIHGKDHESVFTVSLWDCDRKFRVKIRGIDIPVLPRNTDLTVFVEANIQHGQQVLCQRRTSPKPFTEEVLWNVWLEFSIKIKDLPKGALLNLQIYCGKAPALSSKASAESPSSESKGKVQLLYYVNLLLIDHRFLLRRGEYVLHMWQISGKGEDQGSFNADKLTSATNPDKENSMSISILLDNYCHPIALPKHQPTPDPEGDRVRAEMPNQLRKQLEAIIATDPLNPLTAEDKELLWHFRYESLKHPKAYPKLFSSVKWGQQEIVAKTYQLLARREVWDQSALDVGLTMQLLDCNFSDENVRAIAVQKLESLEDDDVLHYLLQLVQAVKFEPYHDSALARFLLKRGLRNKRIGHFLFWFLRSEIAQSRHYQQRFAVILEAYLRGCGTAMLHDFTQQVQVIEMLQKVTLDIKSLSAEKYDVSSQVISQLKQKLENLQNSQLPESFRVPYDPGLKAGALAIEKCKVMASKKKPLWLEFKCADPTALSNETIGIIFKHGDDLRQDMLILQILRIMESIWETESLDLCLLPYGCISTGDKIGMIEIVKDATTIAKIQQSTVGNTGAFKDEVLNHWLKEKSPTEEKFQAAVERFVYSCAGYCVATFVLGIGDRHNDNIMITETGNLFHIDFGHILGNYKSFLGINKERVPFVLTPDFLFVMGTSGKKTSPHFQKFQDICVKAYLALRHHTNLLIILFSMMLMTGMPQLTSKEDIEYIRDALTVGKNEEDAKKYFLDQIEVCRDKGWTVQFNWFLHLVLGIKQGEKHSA
Sequence of purified human recombinant ATM (ataxia telangiectasia mutated), full length (Q13315 whole entry, change not shown): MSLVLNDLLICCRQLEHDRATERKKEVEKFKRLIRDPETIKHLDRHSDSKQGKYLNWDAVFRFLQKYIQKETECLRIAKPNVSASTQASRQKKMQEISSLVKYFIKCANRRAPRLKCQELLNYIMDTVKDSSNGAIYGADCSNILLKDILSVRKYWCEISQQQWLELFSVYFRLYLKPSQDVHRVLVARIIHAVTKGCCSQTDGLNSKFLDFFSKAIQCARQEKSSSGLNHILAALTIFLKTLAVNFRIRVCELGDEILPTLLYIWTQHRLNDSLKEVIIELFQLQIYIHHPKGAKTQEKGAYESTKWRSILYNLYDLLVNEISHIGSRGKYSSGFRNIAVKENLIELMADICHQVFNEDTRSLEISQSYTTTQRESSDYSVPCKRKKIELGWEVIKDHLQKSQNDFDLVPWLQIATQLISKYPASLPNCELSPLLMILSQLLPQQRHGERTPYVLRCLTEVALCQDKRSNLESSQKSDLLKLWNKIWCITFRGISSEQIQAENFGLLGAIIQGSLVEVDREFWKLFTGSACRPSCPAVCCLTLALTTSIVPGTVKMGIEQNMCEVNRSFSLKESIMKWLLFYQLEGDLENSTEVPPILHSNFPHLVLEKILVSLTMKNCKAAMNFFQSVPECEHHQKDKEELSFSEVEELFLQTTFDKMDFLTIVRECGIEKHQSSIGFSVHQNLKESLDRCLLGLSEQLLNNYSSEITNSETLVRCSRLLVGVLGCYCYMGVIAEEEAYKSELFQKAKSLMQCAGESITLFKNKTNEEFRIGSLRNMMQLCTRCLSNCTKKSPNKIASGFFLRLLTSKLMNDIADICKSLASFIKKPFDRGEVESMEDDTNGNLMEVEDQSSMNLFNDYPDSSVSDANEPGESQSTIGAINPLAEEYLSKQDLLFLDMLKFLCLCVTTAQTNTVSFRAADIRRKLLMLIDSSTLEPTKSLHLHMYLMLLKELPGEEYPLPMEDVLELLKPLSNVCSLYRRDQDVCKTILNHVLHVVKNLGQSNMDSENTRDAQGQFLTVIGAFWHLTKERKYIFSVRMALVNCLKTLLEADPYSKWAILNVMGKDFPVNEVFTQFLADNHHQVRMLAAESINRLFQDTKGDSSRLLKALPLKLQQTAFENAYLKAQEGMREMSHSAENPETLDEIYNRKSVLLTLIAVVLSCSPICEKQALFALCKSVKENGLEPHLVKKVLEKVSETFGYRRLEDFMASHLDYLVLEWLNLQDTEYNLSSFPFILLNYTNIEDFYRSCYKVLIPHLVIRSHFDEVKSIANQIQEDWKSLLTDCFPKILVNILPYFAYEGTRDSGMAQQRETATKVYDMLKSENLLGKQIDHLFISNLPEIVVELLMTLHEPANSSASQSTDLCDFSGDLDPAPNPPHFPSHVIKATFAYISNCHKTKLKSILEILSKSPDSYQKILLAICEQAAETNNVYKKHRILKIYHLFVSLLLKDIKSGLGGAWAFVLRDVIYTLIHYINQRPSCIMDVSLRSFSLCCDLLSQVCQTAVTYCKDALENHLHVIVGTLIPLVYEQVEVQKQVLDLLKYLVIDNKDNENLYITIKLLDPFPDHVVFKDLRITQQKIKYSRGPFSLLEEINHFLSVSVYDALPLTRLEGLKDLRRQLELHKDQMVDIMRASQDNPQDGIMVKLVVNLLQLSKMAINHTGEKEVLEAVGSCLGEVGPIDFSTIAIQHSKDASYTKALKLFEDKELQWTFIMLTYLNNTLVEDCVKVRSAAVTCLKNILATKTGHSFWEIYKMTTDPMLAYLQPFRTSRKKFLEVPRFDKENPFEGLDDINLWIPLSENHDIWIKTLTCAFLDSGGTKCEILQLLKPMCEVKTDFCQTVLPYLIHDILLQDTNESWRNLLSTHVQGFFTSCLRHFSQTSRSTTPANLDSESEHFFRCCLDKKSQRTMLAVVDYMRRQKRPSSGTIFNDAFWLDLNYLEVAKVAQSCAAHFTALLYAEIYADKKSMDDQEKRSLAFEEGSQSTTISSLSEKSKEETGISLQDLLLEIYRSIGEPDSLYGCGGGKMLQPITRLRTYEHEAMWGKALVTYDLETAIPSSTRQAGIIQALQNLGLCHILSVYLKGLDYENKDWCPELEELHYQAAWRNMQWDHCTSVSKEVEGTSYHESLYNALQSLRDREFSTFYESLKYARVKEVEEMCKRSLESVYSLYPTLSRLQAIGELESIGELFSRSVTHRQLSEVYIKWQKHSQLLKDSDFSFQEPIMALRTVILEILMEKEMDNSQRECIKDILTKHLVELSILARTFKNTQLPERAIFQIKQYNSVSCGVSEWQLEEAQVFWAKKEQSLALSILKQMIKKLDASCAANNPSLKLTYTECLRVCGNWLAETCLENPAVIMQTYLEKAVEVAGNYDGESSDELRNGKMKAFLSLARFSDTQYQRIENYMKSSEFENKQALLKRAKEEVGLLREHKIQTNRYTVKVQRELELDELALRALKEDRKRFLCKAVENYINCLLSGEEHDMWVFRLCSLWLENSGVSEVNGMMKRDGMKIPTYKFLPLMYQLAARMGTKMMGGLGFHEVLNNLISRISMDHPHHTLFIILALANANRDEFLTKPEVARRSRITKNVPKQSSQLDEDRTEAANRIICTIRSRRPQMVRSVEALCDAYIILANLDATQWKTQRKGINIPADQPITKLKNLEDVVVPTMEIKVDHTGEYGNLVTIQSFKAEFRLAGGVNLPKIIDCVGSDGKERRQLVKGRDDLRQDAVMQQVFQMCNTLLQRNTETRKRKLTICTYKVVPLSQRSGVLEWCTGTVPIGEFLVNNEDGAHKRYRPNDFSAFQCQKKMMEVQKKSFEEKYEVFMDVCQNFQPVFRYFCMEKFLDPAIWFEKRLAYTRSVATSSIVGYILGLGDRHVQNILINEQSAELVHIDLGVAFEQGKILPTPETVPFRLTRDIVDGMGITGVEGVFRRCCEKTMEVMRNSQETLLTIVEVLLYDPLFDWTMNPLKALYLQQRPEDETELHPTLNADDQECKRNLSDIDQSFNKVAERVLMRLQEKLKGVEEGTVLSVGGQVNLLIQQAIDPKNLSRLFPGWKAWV

Row | SMILES | IC50 [1] [µM] | IC50 ([1]; 10 μM ATP, substrate p53) [µM] | IC50 [2] [µM] | IC50 [3] [µM] | IC50 [4] [µM] | IC50 [5] [µM] | IC50 [6] [µM] | IC50 [7] [µM]
1 | COc1cc2ncc3c(c2cc1-c1cnn(C)c1)n(-c1ccnc(C#N)c1)c(=O)n3C [Compound Example 45, 4-[7-Methoxy-3-methyl-8-(1-methyl-1H-pyrazol-4-yl)-2-oxo-2,3-dihydroimidazo-[4,5-c]quinolin-1-yl]pyridine-2-carbonitrile] | < 0.05 | < 0.05 | 0.2 to 1 | > 30 | > 30 | > 30 | > 30 | > 30
2 | CCn1cc(-c2cc3c(cc2OC)ncc2c3n(-c3ccncc3C)c(=O)n2C)cn1 [Compound Example 34, 8-(1-Ethyl-1H-pyrazol-4-yl)-7-methoxy-3-methyl-1-(3-methylpyridin-4-yl)-1,3-dihydroimidazo[4,5-c] quinolin-2-one] | < 0.01 | < 0.01 | < 0.2 | > 30 | > 30 | > 30 | > 30 | > 30
3 | COc1cc2ncc3c(c2cc1-c1cnn(C)c1)n(-c1ccncc1Cl)c(=O)n3C [compound 60, 1-(3-Chloropyridin-4-yl)-7-methoxy-3-methyl-8-(1-methyl-1H-pyrazol-4-yl)-1,3-dihydroimidazo[4,5-c] quinolin-2-one] | < 0.01 | < 0.01 | 1 to 2 | > 30 | > 30 | > 30 | > 30 | > 30
4 | COc1cc2ncc3c(c2cc1-c1cn[nH]c1)n(-c1ccncc1F)c(=O)n3C [Compound Example 9, 1-(3-Fluoropyridin-4-yl)-7-methoxy-3-methyl-8-(1H-pyrazol-4-yl)-1,3-dihydro-imidazo[4,5-c]quinolin-2-one] | < 0.001 | < 0.001 | < 0.2 | > 10 | > 30 | > 30 | > 30 | > 30
5 | COc1cc2ncc3c(c2cc1-c1cnn(C)c1)n(-c1ncncc1F)c(=O)n3C [Compound Example 31, 1-(5-Fluoropyrimidin-4-yl)-7-methoxy-3-methyl-8-(1-methyl-1H-pyrazol-4-yl)-1H,2H,3H-imidazo[4,5-c] quinolin-2-one hydrochloride] | < 0.01 | < 0.01 | < 0.2 | > 30 | > 30 | > 30 | > 30 | > 30
6 | COc1cc2ncc3c(c2cc1-c1cnn(C)c1)n(-c1ccncc1C#N)c(=O)n3C [Compound Example 46, 4-[7-Methoxy-3-methyl-8-(1-methyl-1H-pyrazol-4-yl)-2-oxo-2,3-dihydroimidazo-[4,5-c]quinolin-1-yl]-nicotinonitrile] | < 0.05 | < 0.05 | 0.2 to 1 | > 30 | > 30 | > 30 | > 30 | > 30
7 | COc1cc2ncc3c(c2cc1-c1cnn(C)c1)n(-c1ncc(F)cn1)c(=O)n3C [Compound Example 36, 1-(5-Fluoropyrimidin-2-yl)-7-methoxy-3-methyl-8-(1-methyl-1H-pyrazol-4-yl)-1,3-dihydroimidazo[4,5-c] quinolin-2-one] | < 0.001 | < 0.01 | < 0.2 | > 30 | > 30 | > 30 | > 30 | > 30
8 | COc1cc2ncc3c(c2cc1-c1cn(C)nn1)n(-c1ncccc1F)c(=O)n3C [Compound Example 51, 1-(3-Fluoropyridin-2-yl)-7-methoxy-3-methyl-8-(1-methyl-1H-1,2,3-triazol-4-yl)-1,3-dihydroimidazo-[4,5-c]quinolin-2-one] | < 0.01 | < 0.01 | 0.2 to 1 | > 30 | > 30 | > 30 | > 30 | > 30
9 | COc1cc2ncc3c(c2cc1-c1cn[nH]c1)n(-c1cnn(C2CCOCC2)c1)c(=O)n3C [Compound Example 37, 7-Methoxy-3-methyl-8-(1H-pyrazol-4-yl)-1-[1-(tetrahydropyran-4-yl)-1H-pyrazol-4-yl]-1,3-dihydro-imidazo[4,5-c] quinolin-2-one] | < 0.01 | < 0.01 | < 0.2 | > 10 | > 30 | > 30 | > 30 | > 30
10 | COc1cc2ncc3c(c2cc1-c1cn[nH]c1)n(-c1csc(C)n1)c(=O)n3C [Compound Example 30, 7-Methoxy-3-methyl-1-(2-methylthiazol-4-yl)-8-(1H-pyrazol-4-yl)-1,3-dihydro-imidazo[4,5-c]quinolin-2-one] | < 0.01 | < 0.01 | < 0.2 | > 30 | > 30 | > 30 | > 30 | > 30
11 | COc1cc2ncc3c(c2cc1-c1cnn(C)c1)n(-c1ccncc1F)c(=O)n3C [Compound Example 35, 1-(3-Fluoropyridin-4-yl)-7-methoxy-3-methyl-8-(1-methyl-1H-pyrazol-4-yl)-1,3-dihydroimidazo[4,5-c] quinolin-2-one] | < 0.01 | < 0.01 | < 0.2 | > 30 | > 30 | > 30 | > 30 | > 30
12 | COc1cc2ncc3c(c2cc1-c1cn(C)nc1C)n(-c1ncccc1F)c(=O)n3C [Compound Example 16, 8-(1,3-Dimethyl-1H-pyrazol-4-yl)-1-(3-fluoropyridin-2-yl)-7-methoxy-3-methyl-1,3-dihydroimidazo[4,5-c] quinolin-2-one] | < 0.001 | < 0.001 | < 0.2 | > 30 | > 30 | > 30 | > 30 | > 30
13 | COc1cc2ncc3c(c2cc1-c1cnn(C)c1)n(-c1cnn(C2CCOCC2)c1)c(=O)n3C [Compound Example 55, 7-Methoxy-3-methyl-8-(1-methyl-1H-pyrazol-4-yl)-1-[1-(tetrahydropyran-4-yl)-1H-pyrazol-4-yl]-1,3-dihydroimidazo[4,5-c]-quinolin-2-one] | < 0.01 | < 0.01 | 0.2 to 1 | > 30 | > 30 | > 30 | > 30 | > 30
14 | COc1cc2ncc3c(c2cc1-c1cn[nH]c1)n(-c1ccnn1C)c(=O)n3C [Compound Example 41, 7-Methoxy-3-methyl-1-(2-methyl-2H-pyrazol-3-yl)-8-(1H-pyrazol-4-yl)-1,3-dihydroimidazo[4,5-c] quinolin-2-one] | < 0.01 | < 0.01 | 0.2 to 1 | > 10 | > 30 | > 30 | > 30 | > 30
15 | COc1cc2ncc3c(c2cc1-c1cnn(C)c1)n(-c1cncnc1)c(=O)n3C [Compound Example 57, 7-Methoxy-3-methyl-8-(1-methyl-1H-pyrazol-4-yl)-1-pyrimidin-5-yl-1,3-dihydro-imidazo[4,5-c]quinolin-2-one] | < 0.05 | < 0.05 | 0.2 to 1 | > 30 | > 30 | > 30 | > 30 | > 30
16 | COc1cc2ncc3c(c2cc1-c1cnn(C)c1)n(-c1cn(C)nc1C)c(=O)n3C [Compound Example 5, 1-(1,3-Dimethyl-1H-pyrazol-4-yl)-7-methoxy-3-methyl-8-(1-methyl-1H-pyrazol-4-yl)-1,3-dihydroimidazo[4,5-c]-quinolin-2-one] | < 0.001 | < 0.001 | < 0.2 | > 30 | > 30 | > 30 | > 30 | > 30
